Assay results reported in ChEMBL document CHEMBL3045177, “The effect of ascorbic acid supplementation on brain oxidative events in experimental diabetes” (Med Chem Res, 2010).

Legend:
Rattus norvegicus [1] = assay: Neurotoxicity in Rattus norvegicus Wistar albino (rat) assessed as increase in brain ascorbic acid level measured per gram of tissue at 20 mg/kg, administered as intragastrically after 21 days by spectrphotometric analysis (reference value: 3.7 +/- 0.7 mg); assay type: toxicity, organism-based; set-up: dose 20 mg/kg, route intragastric; settings: in vivo, po, 504 h
Rattus norvegicus [2] = assay: (§1) Neuroprotective activity in streptozotocin-induced Rattus norvegicus Wistar albino (rat) diabetic model assessed as increase in brain glutathione level measured per gram of tissue at 20 mg/kg, administered as intragastrically after 21 days by Ellman's method (reference value: 3 +/- 0.5 umol); assay type: functional; settings: route intragastric
Rattus norvegicus [3] = assay: Neurotoxicity in Rattus norvegicus Wistar albino (rat) assessed as increase in brain glutathione level measured per gram of tissue at 20 mg/kg, administered as intragastrically after 21 days by Ellman's method (reference value: 3.5 +/- 1.0 umol); assay type: toxicity, organism-based; set-up: dose 20 mg/kg, route intragastric; settings: in vivo, po, 504 h
Rattus norvegicus [4] = assay: Neuroprotective activity in streptozotocin-induced Rattus norvegicus Wistar albino (rat) diabetic model assessed as increase in brain ascorbic acid level measured per gram of tissue at 20 mg/kg, administered as intragastrically after 21 days by spectrphotometric analysis (reference value: 3.7 +/- 0.4 mg); assay type: functional; settings: route intragastric
Rattus norvegicus [5] = assay: Neurotoxicity in Rattus norvegicus Wistar albino (rat) assessed as increase in brain malondialdehyde level measured per gram of tissue at 20 mg/kg, administered as intragastrically after 21 days by TBARS assay (reference value: 233.9 +/- 48.6 nmol); assay type: toxicity, organism-based; set-up: dose 20 mg/kg, route intragastric; settings: in vivo, po, 504 h
Rattus norvegicus [6] = assay: as §1, with “total nitric oxide” for “glutathione”, “Griess assay” for “Ellman's method”, “100.6” for “3”, “10.7” for “0.5”; assay type: functional; settings: route intragastric
Rattus norvegicus [7] = assay: Neuroprotective activity in streptozotocin-induced Rattus norvegicus Wistar albino (rat) diabetic model assessed as decrease in brain malondialdehyde level measured per gram of tissue at 20 mg/kg, administered as intragastrically after 21 days by TBARS assay (reference value: 447 +/- 61.9 nmol); assay type: functional; settings: route intragastric
Rattus norvegicus [8] = assay: Neurotoxicity in Rattus norvegicus Wistar albino (rat) assessed as increase in brain total nitric oxide level measured per gram of tissue at 20 mg/kg, administered as intragastrically after 21 days by Griess assay (reference value: 144.8 +/- 16.3 umol); assay type: toxicity, organism-based; set-up: dose 20 mg/kg, route intragastric; settings: in vivo, po, 504 h

In the case of `O=C1O[C@H]([C@@H](O)CO)C(O)=C1O` [ASCORBIC ACID], the Activity (Rattus norvegicus [1]) is reported as 5.2 mg, the Activity (Rattus norvegicus [2]) is reported as 3.1 µmol and the Activity (Rattus norvegicus [3]) is reported as 5.4 µmol. It also gave an Activity (Rattus norvegicus [4]) of 4.26 mg, an Activity (Rattus norvegicus [5]) of 249.2 nmol and an Activity (Rattus norvegicus [6]) of 146.1 µmol. For the same compound, the Activity (Rattus norvegicus [7]) was 204.2 nmol and the Activity (Rattus norvegicus [8]) was 115.2 µmol.
